The CheMixHub viscosity set
Values joined by “and” are separate entries in the source; they are usually repeats but may differ in a detail not shown here. Identical values can stand only once.

Assay: xn = mol fraction of the nth substance listed

CCCCN + ClC(Cl)Cl
viscosity [mPa·s], 101 kPa
Details | 293.15 K | 298.15 K | 303.15 K | 308.15 K
x1 = 0.0601 | 0.59 | 0.555 | 0.529 | 0.516
x1 = 0.1276 | 0.603 | 0.567 | 0.535 | 0.525
x1 = 0.1585 | 0.61 | 0.571 | – | 0.529
x1 = 0.2301 | 0.623 | 0.583 | 0.554 | 0.535
x1 = 0.2658 | 0.631 | 0.587 | 0.558 | 0.538
x1 = 0.336 | 0.641 | 0.598 | – | 0.541
x1 = 0.4049 | 0.647 | 0.6 | 0.567 | 0.543
x1 = 0.4341 | 0.649 | 0.599 | 0.568 | 0.541
x1 = 0.4542 | 0.649 | 0.6 | – | 0.54
x1 = 0.4991 | 0.645 | 0.598 | 0.561 | 0.536
x1 = 0.6045 | 0.63 | 0.585 | 0.548 | 0.524
x1 = 0.6156 | 0.627 | 0.58 | – | 0.52
x1 = 0.6443 | 0.621 | 0.573 | 0.54 | 0.516
x1 = 0.7093 | 0.604 | 0.559 | 0.526 | 0.503
x1 = 0.7325 | 0.596 | 0.552 | 0.52 | 0.496
x1 = 0.8611 | 0.556 | 0.514 | 0.487 | 0.46
x1 = 0.9302 | 0.532 | 0.492 | 0.463 | 0.437

CCCC(=O)OCC + Clc1ccccc1
viscosity [mPa·s], 101.3 kPa
Details | 308.15 K | 318.15 K
x1 = 0.0537 | 0.646 | 0.596
x1 = 0.0994 | 0.637 | 0.588
x1 = 0.1869 | 0.622 | 0.574
x1 = 0.357 | 0.599 | 0.552
x1 = 0.4049 | 0.593 | 0.548
x1 = 0.4939 | 0.585 | 0.541
x1 = 0.5929 | 0.579 | 0.535
x1 = 0.6953 | 0.574 | 0.532
x1 = 0.7941 | 0.573 | 0.532
x1 = 0.9017 | 0.573 | 0.534
x1 = 0.9369 | 0.574 | 0.535

CCCCN + NC1CCCCC1
298.15 K, 101 kPa
Details | viscosity [mPa·s]
x2 = 0.0757 | 0.6805
x2 = 0.1557 | 0.8796
x2 = 0.2401 | 1.111
x2 = 0.3296 | 1.33
x2 = 0.4244 | 1.548
x2 = 0.5252 | 1.774
x2 = 0.6324 | 1.954
x2 = 0.7468 | 2.035
x2 = 0.8691 | 1.976

O=[N+]([O-])[O-].[Ag+] + Nc1cccc(Cl)c1
298.15 K, 101 kPa
Details | viscosity [mPa·s]
x1 = 0.00059 | 3.52
x1 = 0.0014 | 3.57
x1 = 0.00381 | 3.67
x1 = 0.008857 | 3.92
x1 = 0.02337 | 4.83
x1 = 0.06044 | 9.18

CC[N+](CC)(CC)Cc1ccccc1.[Cl-] + O
viscosity [mPa·s], 100 kPa
Details | 298.15 K | 303.15 K | 308.15 K | 313.15 K | 318.15 K
x1 = 8e-05 | 0.8929 | 0.7989 | 0.7209 | 0.6322 | 0.5462
x1 = 0.0002 | 0.8948 | 0.8015 | 0.7259 | 0.6354 | 0.5509
x1 = 0.0004 | 0.8991 | 0.8041 | 0.7284 | 0.6358 | 0.552

NCCC(=O)O + O
viscosity [mPa·s], 100 kPa
Details | x1 = 0.000358 | x1 = 0.000542 | x1 = 0.00072 | x1 = 0.000808 | x1 = 0.00108 | x1 = 0.00126 | x1 = 0.00144 | x1 = 0.0018
293.15 K | 1.006 | 1.008 | 1.009 | 1.011 | 1.014 | 1.016 | 1.018 | 1.022
298.15 K | 0.894 | 0.894 | 0.896 | 0.898 | 0.901 | 0.902 | 0.905 | 0.908
303.15 K | 0.8 | 0.8 | 0.802 | 0.804 | 0.805 | 0.807 | 0.809 | 0.812
308.15 K | 0.721 | 0.721 | 0.723 | 0.725 | 0.725 | 0.728 | 0.729 | 0.732
313.15 K | 0.653 | 0.653 | 0.655 | 0.657 | 0.657 | 0.659 | 0.66 | 0.663

O=C([O-])CC(O)(CC(=O)[O-])C(=O)[O-].[K+].[K+].[K+] + O
viscosity [mPa·s], 101 kPa
Details | 293.15 K | 298.15 K | 303.15 K | 308.15 K
x1 = 0.0025 | 1.072 | 0.946 | 0.844 | 0.758
x1 = 0.0089 | 1.265 | 1.123 | 1.003 | 0.908
x1 = 0.0177 | 1.478 | 1.32 | 1.187 | 1.07

O=S(=O)([O-])[O-].[K+].[K+] + O
Details | viscosity
293.65 K, 100 kPa, x1 = 0.008033 | 1.089 mPa·s
294.15 K, 100 kPa, x1 = 0.005375 | 1.042 mPa·s
294.15 K, 100 kPa, x1 = 0.01069 | 1.109 mPa·s and 1.108 mPa·s
298.15 K, 100 kPa, x1 = 5e-05 | 0.8905 mPa·s
298.15 K, 100 kPa, x1 = 0.0001 | 0.891 mPa·s
298.15 K, 100 kPa, x1 = 0.00021 | 0.892 mPa·s
298.15 K, 100 kPa, x1 = 0.00031 | 0.893 mPa·s
298.15 K, 100 kPa, x1 = 0.00104 | 0.9247 mPa·s
298.15 K, 101 kPa, x1 = 0.00655 | 0.966 mPa·s
298.15 K, 101 kPa, x1 = 0.01242 | 1.039 mPa·s
303.15 K, 101 kPa, x1 = 0.01242 | 0.9548 mPa·s
308.15 K, 100 kPa, x1 = 5e-05 | 0.7195 mPa·s
308.15 K, 100 kPa, x1 = 0.0001 | 0.72 mPa·s
308.15 K, 100 kPa, x1 = 0.00021 | 0.721 mPa·s
308.15 K, 100 kPa, x1 = 0.00031 | 0.722 mPa·s
308.15 K, 100 kPa, x1 = 0.00104 | 0.7509 mPa·s
308.15 K, 101 kPa, x1 = 0.01242 | 0.8705 mPa·s
313.15 K, 101 kPa, x1 = 0.01242 | 0.7905 mPa·s
318.15 K, 101 kPa, x1 = 0.01242 | 0.7249 mPa·s
323.15 K, 101 kPa, x1 = 0.00318 | 0.576 mPa·s
323.15 K, 101 kPa, x1 = 0.00655 | 0.603 mPa·s
323.15 K, 101 kPa, x1 = 0.0113 | 0.645 mPa·s
